Where a name gives a salt, the structure may show the parent alone.
How the values were obtained:
[1] = Solubility in water; format: physicochemical
[2] = Stability in human serum at 37° C. (RP-HPLC); format: in vitro ADME; conditions: for half-life at 200 μM: read-out: Stability in human serum t1/2
Description: (§1) The stability of the compound MC526 was studied through reverse phase chromatography in an aqueous medium at pH=1 and in the human serum at 37° C.
In order to assay the stability of the compound of Example 1 in human serum, a 10 mM solution of the compound in DMSO was added to human serum (obtained from human AB plasma, Sigma) preheated to 37° C. The final concentration of the compound was 200 μM. The resulting solution was incubated at 37±0.5° C. and 300 μL aliquots of the reaction mixture were collected and added to an equal amount of acetonitrile containing trifluoroacetic acid 0.1% at suitable time intervals for deproteinising the serum. The sample was sonicated, vortexed and then centrifuged for 10 minutes at 2150 g. The white supernatant was filtered using PTFE 0.45μm (Alltech) filters and analysed through RP-HPLC.
(§2) The analysis in RP-HPLC allows separating and quantifying the initial compounds and those deriving from hydrolysis. Analysis was carried out using a HP1100 (Agilent Technologies, Palo Alto, Calif., USA) chromatography system equipped with a quaternary pump (model G1311A), a degassing membrane (G1379A), a diode-array detector (DAD) (model G1315B) integrated in the HP1100 system. A HP ChemStation (Agilent Technologies) system was used for analyzing data. The analytic column was Nucleosil 100-5 C18 Nautilus (250×4, 6 mm, size of the particles 5 μm) (Macherey-Nagel). The mobile phase used was constituted by acetonitrile/water (55/45) with 0.1% trifluoroacetic acid and the flow rate is of 1.2 ml/min. The injection volume was 20 μl (Rheodyne, Cotati, Calif.). The effluent from column was monitored at 226 nm (for the compound MC526 and for CAS 1609) and at 240 nm (for salicylic acid and the salicylate AT38) against a reference at 600 nm. The quantification of the initial products and those deriving from hydrolysis was carried out by means of calibration curves obtained using standards studied in the same conditions (for concentrations comprised between 5 and 200 μM).

[3] = Stability in aqueous medium at pH=1 (0.1 M HCl, 37° C., RP-HPLC); format: physicochemical; conditions: compound unaltered after 1 hour of incubation, 100 μM
Description: as §1
In particular, a 10 mM solution of the compound of Example 1 in DMSO was added to a 0.1 M solution of HCl preheated to 37° C. The final concentration of the compound was 100 μM. The resulting solution was maintained at 37±0.5° C. and 20 μl aliquots of the reaction solution were analysed by means of RP-HPLC at suitable time intervals.
as §2

[4] = test system: splenocytes of the BALB/C from the control animal group and from the animals carrying colon carcinoma26 (C26GM); assay: Proliferation assay (3H-TdR) of anti-CD3/anti-CD28 stimulated splenocytes; format: cell-based, mice; conditions: FIG. 7
Description: The mice BALB/c were inoculated s.c. in the inguinal cavity with 0.5*10^6 cells C26GM. The mice were sacrificed after 9 days and the splenocytes were used for in vitro assays.
The splenocytes of the BALB/C from the control animal group and from the animals carrying colon carcinoma26 (C26GM) are plated to the concentration of 6*10^5 cells per well and stimulated with 3 μg/ml anti-CD3 (2C11, ATCC) and 2 μg/ml of anti-CD28 (clone 37.5, ATCC) both with and without scalar dilutions of the compounds subject of the invention. After 3 days of incubation, 1 μCi/well (1 Cl=37 GBq) of ^3H-TdR (PerkinElmer) is added to the culture for 18 hours and the addition thereof is monitored by scintillation.
In particular, the controls (Unst) refer to cells not stimulated with antiCD3 and antiCD28 and the control (St) on stimulated cells but drug-free. It can be observed that the doses corresponding to 200 μM and 100 μM are toxic for the cells, in that the proliferation is not observed even on healthy splenocytes.

solubility [1] [µg/mL] | half-life at 200 μM [2] [min] | Stability in buffer at pH = 1 after 1 hour [3] [%] | SMILES | Hydrolysis of the salicylate derivative in human serum ([2]; release of CAS 1609 and salicylic acid) | Proliferation assay result ([4]; 12.5 μM) | Proliferation assay result ([4]; 25 μM) | Proliferation assay result on healthy cells ([4]; 50 μM, healthy cells) | Proliferation assay result ([4]; 100 μM, healthy splenocytes) | Proliferation assay result ([4]; 200 μM, healthy splenocytes)
10000 | 1.3 | 80 | CC(N)C(=O)Oc1ccccc1C(=O)OCc1no[n+]([O-])c1C(N)=O (stereo not shown) [MC598, ([3-(aminocarbonyl)furoxan-4-yl]methyl-2-(alanyloxy)benzoate hydrochloride)] |  |  |  |  |  | 
2500 | 1.6 | 90 | NCCCC(=O)Oc1ccccc1C(=O)OCc1no[n+]([O-])c1C(N)=O [MC596, ([3-(aminocarbonyl)furoxan-4-yl]methyl-2-(4-aminobutanoyloxy)benzoate hydrochloride)] |  |  |  |  |  | 
< 1 |  |  | NC(=O)c1c(COC(=O)c2ccccc2O)no[n+]1[O-] [AT38, [3-(aminocarbonyl)furoxan-4-yl]methyl salicylate, reference compound] | slowly releases the CAS 1609 compound and salicylic acid |  |  |  |  | 
10000 | 1.4 | 60 | NCCC(=O)Oc1ccccc1C(=O)OCc1no[n+]([O-])c1C(N)=O [MC526, ([3-(aminocarbonyl)furoxan-4-yl]methyl-2-(β-alanyloxy)benzoate)hydrochloride] |  | efficient and non-toxic | efficient and non-toxic | partly toxic | toxic | toxic
